Like-named read-outs stand apart in the source and are kept apart here.
Assays:
[1] = Food effect on administration of sepiapterin: plasma sepiapterin and BH4 concentrations, fasted vs fed; type: in vivo, human; conditions: sepiapterin 10 mg/kg oral; for concentration at 0 h / concentration at 0.5 h / concentration at 1 h / concentration at 2 h / concentration at 4 h / concentration at 8 h / concentration at 12 h / concentration at 24 h: human, oral, 10 mg/kg; for concentration at 0 h: 0 h (predose)
Procedure: Method: Subjects received 2 oral doses of sepiapterin (10 mg/kg) separated by 1 week in a fasted and fed state. Subjects were fed a standard high-fat (approximately 50 percent of total caloric content of the meal) and high-calorie (approximately 800 to 1000 calories) meal starting 30 minutes prior to receiving their second oral dose of sepiapterin on Day 8.
Sampling for PK analysis occurred predose on Days 1 and 8 (within 30 minutes before dosing) and 0.5 hr, 1 hr, 2 hr, 4 hr, 8 hr, 12 hr, and 24 hr after the doses on Days 1 and 8. The blood concentrations of sepiapterin and BH4 were analyzed by MNG Labs.

[2] = Pharmacokinetic analysis of multiple doses of sepiapterin (once daily for 7 days, fed subjects); type: in vivo, human; conditions: human, plasma, fed; for AUC(0-t): read-out: AUC0-24; for Cmax: read-out: Cmax
Excerpt: Methods: Three cohorts of eight fed subjects each were randomized to receive once-daily sepiapterin or placebo for 7 days in a 6:2 ratio. A sentinel dose strategy was also used for administration of the highest sepiapterin dose.

[3] = plasma, fasted, read-out: Concentration in Plasma, Maximum
[4] = plasma, fasted, read-out: Concentration in Plasma, Mean
[5] = plasma, fasted, read-out: Concentration in Plasma, Median
[6] = plasma, fasted, read-out: Concentration in Plasma, Minimum
[7] = plasma, fed (high-fat meal), read-out: Concentration in Plasma, Maximum
[8] = plasma, fed (high-fat meal), read-out: Concentration in Plasma, Mean
[9] = plasma, fed (high-fat meal), read-out: Concentration in Plasma, Median
[10] = plasma, fed (high-fat meal), read-out: Concentration in Plasma, Minimum
[11] = 5 mg/kg, Day 1, sepiapterin 5 mg/kg once daily
[12] = 5 mg/kg, Day 7, sepiapterin 5 mg/kg once daily
[13] = 20 mg/kg, Day 1, sepiapterin 20 mg/kg once daily
[14] = 20 mg/kg, Day 7, sepiapterin 20 mg/kg once daily
[15] = 60 mg/kg, Day 1, sepiapterin 60 mg/kg once daily
[16] = 60 mg/kg, Day 7, sepiapterin 60 mg/kg once daily

C[C@H](O)[C@H](O)[C@H]1CNc2nc(N)[nH]c(=O)c2N1 [BH4, Tetrahydrobiopterin]
concentration at 0 h [1, 3]: 9 nM | concentration at 0 h [1, 4]: 7.62 nM | concentration at 0 h [1, 5]: 7.75 nM | concentration at 0 h [1, 6]: 5 nM | concentration at 0.5 h [1, 3]: 66.5 nM | concentration at 0.5 h [1, 4]: 25.6 nM | concentration at 0.5 h [1, 5]: 22.9 nM | concentration at 0.5 h [1, 6]: 13.8 nM | concentration at 1 h [1, 3]: 223 nM | concentration at 1 h [1, 4]: 155 nM | concentration at 1 h [1, 5]: 147 nM | concentration at 1 h [1, 6]: 98.5 nM | concentration at 2 h [1, 3]: 618 nM | concentration at 2 h [1, 4]: 413 nM | concentration at 2 h [1, 5]: 370 nM | concentration at 2 h [1, 6]: 271 nM | concentration at 4 h [1, 3]: 1130 nM | concentration at 4 h [1, 4]: 624 nM | concentration at 4 h [1, 5]: 635 nM | concentration at 4 h [1, 6]: 379 nM | concentration at 8 h [1, 3]: 457 nM | concentration at 8 h [1, 4]: 248 nM | concentration at 8 h [1, 5]: 233 nM | concentration at 8 h [1, 6]: 90.2 nM | concentration at 12 h [1, 3]: 162 nM | concentration at 12 h [1, 4]: 85.9 nM | concentration at 12 h [1, 5]: 75.3 nM | concentration at 12 h [1, 6]: 38.9 nM | concentration at 24 h [1, 3]: 37.4 nM | concentration at 24 h [1, 4]: 18.3 nM | concentration at 24 h [1, 5]: 15.3 nM | concentration at 24 h [1, 6]: 8.5 nM | concentration at 0 h [1, 7]: 11 nM | concentration at 0 h [1, 8]: 8.43 nM | concentration at 0 h [1, 9]: 8.5 nM | concentration at 0 h [1, 10]: 6 nM | concentration at 0.5 h [1, 7]: 76.4 nM | concentration at 0.5 h [1, 8]: 33.3 nM | concentration at 0.5 h [1, 9]: 30.9 nM | concentration at 0.5 h [1, 10]: 8.9 nM | concentration at 1 h [1, 7]: 369 nM | concentration at 1 h [1, 8]: 166 nM | concentration at 1 h [1, 9]: 160 nM | concentration at 1 h [1, 10]: 42.3 nM | concentration at 2 h [1, 7]: 1200 nM | concentration at 2 h [1, 8]: 587 nM | concentration at 2 h [1, 9]: 554 nM | concentration at 2 h [1, 10]: 299 nM | concentration at 4 h [1, 7]: 1570 nM | concentration at 4 h [1, 8]: 1100 nM | concentration at 4 h [1, 9]: 1010 nM | concentration at 4 h [1, 10]: 751 nM | concentration at 8 h [1, 7]: 926 nM | concentration at 8 h [1, 8]: 520 nM | concentration at 8 h [1, 9]: 485 nM | concentration at 8 h [1, 10]: 253 nM | concentration at 12 h [1, 7]: 261 nM | concentration at 12 h [1, 8]: 161 nM | concentration at 12 h [1, 9]: 142 nM | concentration at 12 h [1, 10]: 90.4 nM | concentration at 24 h [1, 7]: 40.1 nM | concentration at 24 h [1, 8]: 19.3 nM | concentration at 24 h [1, 9]: 16.1 nM | concentration at 24 h [1, 10]: 12.1 nM | Geometric mean ratio (fasted/fed, 90% CI) for AUC0-inf ([1]; plasma): 0.58 (0.47 to 0.71) | Geometric mean ratio (fasted/fed, 90% CI) for Cmax ([1]; plasma): 0.55 (0.45 to 0.68) | Cmax in the plasma, fed compared to fasted subjects (in words) [1]: much higher | Increase in overall exposure (AUC0-inf and AUClast), fed compared with fasted state [1]: 1.7 fold | Tmax [2, 11]: 4 h | AUC(0-t) [2, 11]: 994 ng·h/mL | Cmax [2, 11]: 147 ng/mL | Tmax [2, 12]: 4 h | AUC(0-t) [2, 12]: 1070 ng·h/mL | Cmax [2, 12]: 152 ng/mL | Tmax [2, 13]: 4 h | AUC(0-t) [2, 13]: 3030 ng·h/mL | Cmax [2, 13]: 496 ng/mL | Tmax [2, 14]: 4 h | AUC(0-t) [2, 14]: 3720 ng·h/mL | Cmax [2, 14]: 516 ng/mL | Tmax [2, 15]: 4.6 h | AUC(0-t) [2, 15]: 4560 ng·h/mL | Cmax [2, 15]: 597 ng/mL | Tmax [2, 16]: 4 h | AUC(0-t) [2, 16]: 4860 ng·h/mL | Cmax [2, 16]: 678 ng/mL | AUC(0-inf) ([2]; Day 1, sepiapterin 5 mg/kg once daily): 1010 ng·h/mL | AUC(0-inf) ([2]; Day 1, sepiapterin 20 mg/kg once daily): 3080 ng·h/mL | AUC(0-inf) ([2]; Day 1, sepiapterin 60 mg/kg once daily): 4670 ng·h/mL

From patent US20220362249A1, “METHODS FOR TREATING […]” (PTC Therapeutics MP, Inc., priority 2019, published 2022)
